Measured values as given in patent US8314140B2, “4-hydroxythiobenzamide derivatives of drugs” (Antibe Therapeutics Inc., priority 2006, dated 2012).
“Also recorded” adds a separate entry of the source.

Assays:
[1] = tested on: leukocyte adherence to the vascular endothelium; experiment: Leukocyte adherence after NSAID or derivative, intravital microscopy (Example 21); format: in vivo, rat; details: for number of adherent leukocytes compared to the parent drug alone: comment on Table 2
Description: (§1) Briefly, post-capillary mesenteric venules in anestheitized rats are examined under a light microscope.

COX-1 [2] = target: T1, COX-1 (Rattus norvegicus, UniProt Q63921); experiment: Whole blood thromboxane B2 synthesis in treated rats; format: in vivo; details: 60 μmol/kg oral; versus vehicle; FIG. 11
T1 construct: whole blood thromboxane synthesis, which occurs via COX-1; from tissue; host or cells: rat whole blood, ex vivo after oral dosing
T1 sequence (Q63921 27-602): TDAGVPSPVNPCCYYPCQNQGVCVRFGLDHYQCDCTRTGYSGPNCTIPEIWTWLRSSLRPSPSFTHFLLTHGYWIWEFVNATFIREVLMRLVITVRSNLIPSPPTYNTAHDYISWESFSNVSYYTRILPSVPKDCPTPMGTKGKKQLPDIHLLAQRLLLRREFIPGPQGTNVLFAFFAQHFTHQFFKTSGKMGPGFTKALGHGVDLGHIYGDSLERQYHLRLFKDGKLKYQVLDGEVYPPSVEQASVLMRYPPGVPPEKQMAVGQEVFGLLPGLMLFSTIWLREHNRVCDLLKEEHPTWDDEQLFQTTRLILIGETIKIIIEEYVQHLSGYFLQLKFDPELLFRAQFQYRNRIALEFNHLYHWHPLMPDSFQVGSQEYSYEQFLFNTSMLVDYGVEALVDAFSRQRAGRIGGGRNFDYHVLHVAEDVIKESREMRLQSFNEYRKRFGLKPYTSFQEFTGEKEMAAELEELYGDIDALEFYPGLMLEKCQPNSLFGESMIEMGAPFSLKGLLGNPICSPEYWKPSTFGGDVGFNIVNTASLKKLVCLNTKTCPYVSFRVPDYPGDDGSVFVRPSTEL
Protocol: Inhibition of COX-1 was also measured using the same rats. […] The samples were then centrifuged for 3 min at 9,000 g and the supernatant was frozen at −80° C. for subsequent measurement of thromboxane B2 concentrations using a specific ELISA.
Inhibition of COX-1 was also measured using the same rats, using the same method as described for FIG. 11.

gastric ulcers = experiment: Healing of acetic acid-induced gastric ulcers; format: in vivo, rat; details: oral twice-daily for 4 days; 30 μmol/kg (naproxen, Compound XX 60 μmol/kg); FIG. 17
Protocol: Gastric ulcers were induced via serosal application of acetic acid, as described by Elliott et al., A nitric oxide-releasing nonsteroidal anti-inflammatory drug accelerates gastric ulcer healing in rats. […] After 4 days of such treatment, the rats were euthanized and the stomach was excised and photographed. The area (in mm^2) of the ulcer was determined planimetrically by an individual unaware of the treatments given to the rats.

gastric damage [3] = experiment: Incidence of gastric damage at end of the leukocyte adherence experiment; details: for Percent Incidence of Gastric Damage: intragastric 30 μmol/kg (naproxen and Compound XX 60 μmol/kg), end of experiment
Description: as §1

gastric damage [4] = experiment: Gastric damage score 3 h after oral dosing; format: in vivo, rat
Description: There were 5 rats in each group.
(§2) Each group consisted of 5 rats.

COX-1 [5] = target: COX-1 (Homo sapiens, UniProt P23219); details: FIG. 16
Protocol: Aliquots (0.5 mL) of blood from healthy human volunteers were added to glass tubes containing 10 uL of methanol alone, or one of the test drugs prepared such that the final concentration would be 0.1, 0.3, 1 or 3 μM. The tubes were placed in water bath (37° C.) with gentle shaking for 45 min, after which they were centrifuged (1,000×g) for 10 minutes. The concentration of thromboxane B2 in each sample was then determined using a specific ELISA, as in the studies shown in FIG. 11.

[6] = patients after usual doses; Dig. Dis. Sci. 1989; 34: 573-578; cited from earlier work
visceral pain perception = experiment: Rat model of visceral pain perception (colorectal distension, AWR score); format: in vivo; details: 0.8 mL colorectal distention; glibenclamide 10 mg/kg i.p. 30 min before; FIG. 3
Protocol: A rat model of visceral pain perception, a pre-clinical model of irritable bowel syndrome, was used in the following example. Rats (male, Wistar, 200-250 g, obtained from Charles River, Monza, Italy), were housed in plastic cages and maintained under controlled conditions with 12-hours light/dark cycle with lights on at 7.00 AM. Tap water and standard laboratory chow were freely available. Before experiments, rats were individually trained by spending 2-3 hours per day in a plexiglass cage for 2-3 days. It allowed them to adjust to a movement-restriction environment. Food was withheld for 12 hours before colorectal distension (CRD) recording were performed. Experiments were performed in awake rats and were conducted in a blind manner in that the observer was not aware of the identity of drug administered to each animal.
In the testing day, rats were sedated with ether inhalation and a 2 cm long latex balloon was inserted intrarectally 2 cm from the anal verge and fixed at the base of the tail. The balloon was connected via a double-barreled cannula to a pressure transducer to continuously monitoring the rectal pressure by a computer (PowerLab PC, A.D. Instruments, Milford, Mass., USA) and to a syringe for inflation/deflation of the balloon. The rats were then housed in a small cage (20×8×8 cm) on an elevated Plexiglas™ platform and allowed to wake up and adapt for 1 hour. After recovery from sedation, animals underwent the CRD procedure and behavioral responses were tested. The night before the experiments, the balloons were inflated and left overnight so the latex stretched and the balloons became compliant.
CRD of 20 seconds, performed every 5 minutes, was applied in increment of 0.4 ml starting from 0.4 ml up to 1.6 ml water. To achieve an accurate measurement of the colonic parameters and perception, the distensions were repeated twice for each intensity and data for each animal were averaged for analysis. Each animal underwent a double set of CRD. Twenty minutes after the first sequence of CRD (0.4 mL-1.6 ml water), drugs were administered intraperitoneally (i.p.) and a second set of CRD was performed. Behavioral responses during the first and the second set of CRD were assessed and compared.
Behavioral response to CRD was assessed by measuring the abdominal withdrawal reflex (AWR) using a semiquantitative score (1).
A rat model of visceral pain perception as described above was used to compare pain perception scores for 5-amino-2-(4-thiocarbamoyl-phenoxycarbonyloxy)-benzoic acid (Compound XXVII) with or without glibenclamide, an inhibitor of ATP-sensitive K^+ (KATP) channels.
Experiments were carried out as described in Example 13, except that groups of 5 rats each were treated with vehicle, trimebutine maleate (10 mg/kg), or with equimolar doses of trimebutine thiocarbamoylbenzoate (Compound III) or thiocarbamolybenzoate alone.

COX-2 = target: T2, COX-2 (Rattus norvegicus, UniProt P35355); experiment: Rat airpouch assay, exudate PGE2 after zymosan; format: in vivo; details: 60 μmol/kg; versus vehicle; FIG. 15
T2 construct: from tissue; host or cells: rat subcutaneous airpouch exudate, in vivo, zymosan-induced
T2 sequence (P35355 18-604): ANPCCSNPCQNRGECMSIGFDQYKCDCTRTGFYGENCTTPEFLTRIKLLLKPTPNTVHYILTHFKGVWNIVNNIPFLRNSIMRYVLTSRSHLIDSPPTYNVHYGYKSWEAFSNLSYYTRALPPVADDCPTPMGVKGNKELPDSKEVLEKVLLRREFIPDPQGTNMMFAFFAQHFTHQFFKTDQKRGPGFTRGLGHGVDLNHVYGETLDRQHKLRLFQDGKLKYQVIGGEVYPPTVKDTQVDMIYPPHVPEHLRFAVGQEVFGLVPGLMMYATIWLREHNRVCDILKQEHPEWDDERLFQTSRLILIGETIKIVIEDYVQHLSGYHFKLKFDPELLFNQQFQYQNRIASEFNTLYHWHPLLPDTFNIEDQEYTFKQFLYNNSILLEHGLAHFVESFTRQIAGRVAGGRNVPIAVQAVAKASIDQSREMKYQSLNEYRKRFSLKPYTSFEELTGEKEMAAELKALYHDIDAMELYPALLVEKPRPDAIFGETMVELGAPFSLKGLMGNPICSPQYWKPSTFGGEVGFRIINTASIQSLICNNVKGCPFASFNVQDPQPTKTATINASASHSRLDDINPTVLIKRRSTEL
Protocol: Briefly, a subcutaneous “pouch” is created by repeated injections of air over several days. Once established, inflammation in the pouch can be induced by injection of 1 mL of 1% zymosan. […] Another group of 5 rats was treated with the vehicle, but received an injection of 0.9% sterile saline into the pouch rather than zymosan.
as §2

[7] = hypertensive rats, 60 μmol/kg intraperitoneal bolus, 60 minutes; FIG. 18
[8] = tested on: carrageenan-induced paw edema; experiment: Carrageenan hindpaw edema model; format: in vivo, rat; details: oral 30 min prior to carrageenan; diclofenac 1, 3 or 10 mg/kg; Compound XVII equimolar to diclofenac 3 mg/kg; FIG. 14
Protocol: Male, Wistar rats weighing 175-200 g were given the test compounds orally 30 min prior to subplantar injection of 100 ul of 1% lambda carrageenan.

[9] = H2S generation in buffer and liver homogenate (Example 24); format: in vitro ADME; details: 1 mM, FIG. 19
Protocol: Two ml of an assay reaction mixture was introduced in to ice-cold 250 μl of NaOH 0.1 N in a sealed 3-neck reactor. […] Incubations were lead with or without presence of 10% (w/v) liver homogenate and 2 mM pyridoxal 5′-phosphate. A constant stream of nitrogen was passed through the mixture via a gas-inlet capillary. […] Khan et al., 1980). Reactions were initiated by transferring the tube from ice bath to a 37° C. water bath. The stream of nitrogen carried the sulfide acid in the second reactor containing 2 ml of SAOB as described previously. After incubating at 37° C. for 90 minutes, 1 ml of 50% trichloroacetic acid solution was added to mixture to stop the reaction. […] The concentration of sulfide in SAOB solution was measured with a sulfide sensitive electrode as previously described (Ubuka, 2002; Khan et al., 1980).

COX-1 (Homo sapiens, UniProt P23219), sequence (P23219 24-599): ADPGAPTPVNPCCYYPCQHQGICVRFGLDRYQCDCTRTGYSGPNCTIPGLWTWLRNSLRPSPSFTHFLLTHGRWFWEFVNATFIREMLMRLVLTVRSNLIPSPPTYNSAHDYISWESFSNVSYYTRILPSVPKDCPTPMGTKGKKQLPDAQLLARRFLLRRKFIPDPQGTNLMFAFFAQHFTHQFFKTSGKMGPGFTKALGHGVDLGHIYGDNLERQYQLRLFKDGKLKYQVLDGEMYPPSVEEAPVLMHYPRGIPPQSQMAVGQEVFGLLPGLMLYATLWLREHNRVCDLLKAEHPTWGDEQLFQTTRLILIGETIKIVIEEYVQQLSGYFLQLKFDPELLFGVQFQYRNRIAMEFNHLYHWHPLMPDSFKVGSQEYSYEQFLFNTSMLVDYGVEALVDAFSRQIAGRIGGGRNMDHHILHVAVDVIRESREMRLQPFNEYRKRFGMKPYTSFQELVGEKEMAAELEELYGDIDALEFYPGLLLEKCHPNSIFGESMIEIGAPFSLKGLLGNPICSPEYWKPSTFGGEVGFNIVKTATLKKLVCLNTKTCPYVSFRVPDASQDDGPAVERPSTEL

Q: With `COc1ccc2cc(C(C)C(=O)Oc3ccc(C(N)=S)cc3)ccc2c1` (stereo not drawn) [Compound XX, 2-(6-Methoxy-naphthalen-2-yl)-propionic acid 4-thiocarbamyl-phenyl ester] as the compound, how does the “number of adherent leukocytes compared to the parent drug alone” value [1] read?
A: significantly reduced the number of adherent leukocytes

Q: What about the “thromboxane B2 synthesis in blood (COX-1 activity)” value (COX-1 [2]) of the same compound?
A: significantly (*p<0.05) inhibited COX-1 activity

Q: And the “gastric ulcer healing (ulcer surface area)” value (gastric ulcers)?
A: significantly greater healing

Q: What about the “percent incidence of gastric damage compared to the parent drug alone” value (gastric damage [3]; rat, in vivo) of the same compound?
A: significantly reduced the percent incidence of gastric damage

Q: And the gastric damage score (gastric damage [4]; oral 60 μmol/kg, 3 hours, FIG. 10)?
A: significantly less damage than naproxen itself; also recorded: not detectable

Q: For `COc1ccc2c(c1)c(CC(=O)Oc1ccc(C(N)=S)cc1)c(C)n2C(=O)c1ccc(Cl)cc1` [Compound XIX, [1-(4-Chloro-benzoyl)-5-methoxy-2-methyl-1-H-indol-3-yl]-acetic acid 4-thiocarbamoyl-phenyl ester], which “thromboxane synthesis by human blood (COX-1 activity)” value (COX-1 [5]; 0.1, 0.3, 1 or 3 μM, 45 min, 37° C.) is on record?
A: concentration-dependent inhibition of COX-1 activity

Q: And the “thromboxane synthesis by human blood (COX-1 activity) versus indomethacin” value (COX-1 [5]; concentrations of 1 and 3 μM)?
A: significantly greater (*p<0.05) inhibition of COX-1 activity than that produced by indomethacin

Q: And the “Number of Adherent Leukocytes” value ([1]; intragastric 30 μmol/kg (naproxen and Compound XX 60 μmol/kg), mean±SEM)?
A: 3.0 ± 0.4 per 100 μm vessel length

Q: And the melting point?
A: 224 to 226 °C

Q: And the “Percent Incidence of Gastric Damage” value (gastric damage [3])?
A: 0%

Q: With `Nc1ccc(O)c(C(=O)O)c1` [mesalamine, reference compound] as the compound, how does the “concentration in the colonic lumen” value [6] read?
A: up to 5 mM

Q: And the “pain perception score after glibenclamide pretreatment” value (visceral pain perception)?
A: did not affect the pain perception

Q: Which “exudate PGE2 in the pouch (COX-2 activity)” value (COX-2) does the source give for `COc1ccc2cc([C@H](C)C(=O)O)ccc2c1` [naproxen] here?
A: significantly suppressed COX-2 activity

Q: What about the “increase in systolic blood pressure” value [7] of the same compound?
A: substantial increase in systolic blood pressure

Q: Which “number of adherent leukocytes compared to the parent drug alone” value [1] does the source give for `NC(=S)c1ccc(OC(=O)Cc2ccccc2Nc2c(Cl)cccc2Cl)cc1` [Compound XVII, [2-(2,6-dichloro-phenylamino)-phenyl]-acetic acid 4-thiocarbamoyl-phenyl ester] here?
A: significantly reduced the number of adherent leukocytes

Q: And the melting point?
A: 170 to 172 °C

Q: And the “gastric ulcer healing (ulcer surface area)” value (gastric ulcers)?
A: significantly greater healing

Q: And the “percent incidence of gastric damage compared to the parent drug alone” value (gastric damage [3]; comment on Table 2)?
A: significantly reduced the percent incidence of gastric damage

Q: What about the “Percent Incidence of Gastric Damage” value (gastric damage [3]) of the same compound?
A: 20%

Q: And the “paw edema (paw volume increase)” value [8]?
A: reduced paw edema to a greater extent; also recorded: comparable to the effect of diclofenac at a dose of 10 mg/kg

Q: And the “H2S generated in liver homogenate” value ([9]; 10% (w/v) liver homogenate)?
A: greater release of H2S from Compound XVII than from TBZ

Q: What about the “H2S generated in buffer” value ([9]; potassium phosphate buffer pH 7.4) of the same compound?
A: significantly more release of H2S than an equivalent amount of TBZ

Q: What about the gastric damage score (gastric damage [4]; oral, 3 h, diclofenac 20 mg/kg or equimolar doses (Compound XVII 27.3 mg/kg, TBZ 7.3 mg/kg), FIG. 8) of the same compound?
A: no gastric damage; also recorded: significantly less gastric damage than diclofenac

Q: With `O=C(O)Cc1ccccc1Nc1c(Cl)cccc1Cl` [diclofenac, reference compound] as the compound, how does the “paw edema (paw volume increase)” value [8] read?
A: dose-dependently reduced paw edema
